Reference: the METLIN SMRT retention time set (Domingo-Almenara et al. 2019)

Experiment: gradient 5% acetonitrile 3 min, to 50% in 2 min, to 85% in 15 min, held 3 min, 100 µL/min
Settings: column: Zorbax Extend-C18 2.1 x 50 mm; eluents: water / acetonitrile, 0.1% formic acid
Procedure, shortened: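 Values are retention times taken from adduct peaks that software picked and an analyst inspected. The pure standards were run as mixtures of ~100 molecules on HPLC linked to a quadrupole time-of-flight mass spectrometer, in positive and negative ionization mode. A Zorbax Extend-C18 column (2.1 × 50 mm, 1.8 μm) was used at 100 μL/min with water and acetonitrile, each including 0.1% formic acid.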

RP-LC retention time [s] | Compound
1010 | Cc1nc(-c2csc(S(=O)(=O)N3CCC(C(=O)Nc4ccc(F)c(Cl)c4)CC3)c2)no1
954 | CCCOc1ccc(C(=O)Nc2cnn(CC)c(=O)c2N2CCOCC2)cc1
711 | CNC(=O)C1CCCN(c2nc3ncn(CC(=O)Nc4cccc(C(C)C)c4)c(=O)c3s2)C1 (stereo not drawn)
583 | Fc1ccc(CN2CCC3(CC2)N=C(C2CC2)NO3)cc1
589 | Cc1ccc(-n2c(=O)n(CC(=O)NCCN3CCN(C)CC3)c3cccnc32)cc1
590 | CCn1cnc2c1CN(S(=O)(=O)c1cccc(C#N)c1)CC2
827 | CCN(CC)C(=O)Nc1ccc(C)c(Cl)c1
738 | COc1cccc(CNC2=NCCNC23CCN(S(=O)(=O)c2ccc(Cl)cc2)CC3)c1
890 | CC(C)OCCCNC(=O)CN1c2ccc(F)cc2-c2ccccc2S1(=O)=O
890 | CCCn1nnc2cc(S(=O)(=O)N3CCCC(C(=O)N4CCCCCC4)C3)ccc21 (stereo not drawn)
888 | CC(C)NC(=O)c1ccc(OCC2CCN(C(=O)c3c(F)cccc3Cl)CC2)cc1
676 | CN(CC(=O)N1CCCCC1)S(=O)(=O)c1ccc2c(c1)CCCC(=O)N2
737 | Cc1cc2[nH]c(C(=O)Nc3cc(F)c(F)c(F)c3)c(CN3CCOCC3)c2s1
974 | O=C(Cn1cnc2c(sc3nc(-c4ccccc4)ccc32)c1=O)Nc1ccc2c(c1)OCO2
916 | COC(=O)c1cc(S(=O)(=O)N2CCCC2C(=O)Nc2cccc3ccccc23)cn1C (stereo not drawn)
902 | O=C(NCC1CC1)c1sc2ncccc2c1-n1cccc1
759 | O=C(NC1CC1)c1nc(C(=O)N2CCN(c3ccccc3)CC2)cs1
885 | COc1ccc(NC(=O)C2CCN(S(=O)(=O)c3cc(-c4noc(C)n4)cs3)CC2)c(OC)c1
711 | Cc1cc(C)cc(NC(=O)NCC(c2cccnc2)c2cn(C)c3ccccc23)c1 (stereo not drawn)
976 | COCC(C)NC(=O)c1cc2c(s1)N(CC1CC1)CCCC2 (stereo not drawn)
1190 | CC1=C(C(=O)Nc2ccc(Cl)cc2C(=O)NC(C)c2ccccc2)SCCO1 (stereo not drawn)
1190 | COC(=O)c1cccc(NC(=O)c2c(O)c3cccnc3n(-c3ccc(F)cc3)c2=O)c1

RP-LC retention time [s] | Compound
773 | Cc1nc(-c2ccncc2)nc2c1CCC(=O)N2C1CCCC1
652 | COc1ccc(-c2noc(CNC(=O)c3cc(C)nc4ccccc34)n2)cc1OC
1080 | CCc1nc2cc(-c3noc(-c4ccccc4OC)n3)ccc2o1
764 | COc1ccccc1CNC(=O)C1CCCN1S(=O)(=O)c1cc2c(cc1C)NC(=O)CO2 (stereo not drawn)
556 | O=C(NCCc1cn2c(n1)SCC2)C(=O)Nc1ccc2c(c1)OCCO2
1100 | COc1ccc(S(=O)(=O)N2CCc3nc(-c4ccc(Cl)cc4)ncc3C2)cc1
720 | CCCc1cnc2c(c1SC(C(C)=O)C(=O)N(C)C)c(=O)n(C)c(=O)n2C (stereo not drawn)
801 | CCC(=O)N1CCc2cc(N3CC(C(=O)Nc4cccc(F)c4C)CC3=O)ccc21 (stereo not drawn)
1170 | CC(C)OC(=O)COc1cc(O)c2c(=O)cc(-c3ccccc3)oc2c1
954 | C=CCN1C(=O)COc2ccc(-c3csc(NC(=O)CC(C)C)n3)cc21
1120 | Cc1sc(-c2noc(C3CC3)n2)cc1S(=O)(=O)N1CCC(C(=O)NC2CCC(C)CC2)CC1 (stereo not drawn)
991 | CC(C)c1ccc(NC(=O)Cn2nc(C(=O)N3CCCC3)c3ccccc32)cc1
852 | COc1ccccc1CNC(=O)C1CCCN(C(=O)c2cc3sccc3n2C)C1 (stereo not drawn)
985 | Cc1nc2c(sc3nc(-c4ccccc4)ccc32)c(=O)n1CC(=O)NCc1ccc2c(c1)OCO2
865 | CCOC(=O)c1c(C)c(CCC(=O)NCc2ccc3c(c2)OCO3)c(C)n1C
1090 | Cc1ccc(N2CC(c3noc(-c4cccc(Cl)c4)n3)CC2=O)cc1 (stereo not drawn)
623 | Cc1cc(N2CCN(C(=O)c3cncc(Br)c3)CC2)nc2ccccc12
787 | O=S(=O)(c1ccc(F)cc1)N1CCC(Cc2nncn2-c2ccccc2)CC1
843 | CC(Cc1ccco1)NC(=O)c1cc(-c2ccccn2)nc2ccccc12 (stereo not drawn)
731 | CCN(CC)c1ncc2c(n1)CCC(C(=O)NCc1ccc(F)cc1Cl)C2 (stereo not drawn)
1020 | Cc1ccc(-n2nc(C)c3c(C)cc(OCC(=O)Nc4ccc5c(c4)OCO5)nc32)cc1
751 | Cc1oc(C2CCN(S(=O)(=O)c3cccc(C#N)c3)CC2)nc1C(=O)N(C)C

RP-LC retention time [s] | Compound
1250 | Cc1ccc(-c2nc(-c3ccc(-c4noc(CNC(=O)c5ccccc5)n4)cc3)cs2)s1
649 | Cn1nc(N2CCC(NC(=O)C3CCCCC3)C2)ccc1=O (stereo not drawn)
724 | O=C(NCc1ccccc1Cl)C1COCC(=O)N1Cc1ccccc1 (stereo not drawn)
729 | CC1(C)CC(=O)c2cn(-c3ccc(F)cc3)c(=O)c(C(=O)N3CCCC3)c2C1
974 | O=C(CCn1nnc2cc(-c3noc(-c4ccc(C(F)(F)F)cc4)n3)ccc21)N1CCOCC1
948 | O=C(C1CCC1)N1CCc2sc(S(=O)(=O)Nc3ccc(F)c(Cl)c3)cc2C1
838 | O=C(Nc1cccc(Cl)c1)C1CCc2nc(N3CCOCC3)ncc2C1 (stereo not drawn)
649 | O=C(CN1CCN(Cc2ccc(F)cc2)C1=O)NC1CC1
768 | Cc1cccc(CNC(=O)C2CC(=O)N(c3ccc4c(c3)CCN4C(=O)C3CC3)C2)c1 (stereo not drawn)
627 | Cc1cc(C)cc(NC(=O)N2CCN(CCn3c(-c4ccncc4)nc4cccnc43)CC2)c1
860 | O=C(CCn1nnc2cc(-c3noc(Cc4ccccc4Br)n3)ccc21)N1CCOCC1
1110 | Cc1nc2cc(-c3noc(-c4cccc(F)c4)n3)ccc2o1
718 | COCCn1cc(CCNC(=O)Nc2ccc(C)cc2)c2cccnc21
863 | O=C(NCc1cc(-c2ccco2)on1)c1ncc(-c2ccccc2)o1
759 | Cc1cccc(N2CCN(C(=O)c3cn(-c4ccc(C#N)cc4)cn3)CC2)c1
792 | CCc1ccc(OCC(=O)N(Cc2ccc(N(C)C)cc2)C2CCS(=O)(=O)C2)cc1 (stereo not drawn)
634 | O=C(Nc1ccc(F)cc1)C1CCCN(c2ccc3cc(S(=O)(=O)N4CCCC4)ccc3n2)C1 (stereo not drawn)
748 | O=C(Nc1cc(F)cc(F)c1)Nc1cccc(-c2ccc(N3CCOCC3)nn2)c1
610 | CCN1CCN(c2cc(C(=O)O)c3cc(NS(=O)(=O)c4cc(C)ccc4C)ccc3n2)CC1
894 | CC(C)c1noc(C2(NC(=O)c3cnccn3)CCCCC2)n1
675 | CC(C)c1ccc(CNC(=O)c2cn3c(n2)CCCC3)cc1
785 | Cc1c(CC(=O)N2CCC(C(N)=O)CC2)c(=O)oc2cc3occ(C(C)(C)C)c3cc12

RP-LC retention time [s] | Compound
592 | O=C(O)c1cc2cc(Cc3cccnc3)ccc2o1
730 | C[C@H]1CN(C(=O)NCc2ccccc2)C[C@@H]1c1nc(-c2cccnc2)no1
946 | Cc1ccc(N2CCC(NC(=O)Cc3ccc(Cl)cc3)C2=O)cc1C (stereo not drawn)
623 | O=C(NC1CC1)c1cccnc1N1CCSCC1
1080 | Cn1ccc2cc(S(=O)(=O)N3CCCC(C(=O)NC4CCCCCCC4)C3)ccc21 (stereo not drawn)
753 | O=C(Nc1ccccc1)C1CCCN(c2nnc3ccc(Cl)cn23)C1 (stereo not drawn)
582 | COc1cccc(CN2CCC3(CC2)CC(O)CCO3)c1OC (stereo not drawn)
656 | CCS(=O)(=O)N1CCCc2cc(C(=O)NC3CCCCC3)ccc21
1190 | Cc1ccccc1Cc1noc(-c2nc(-c3ccc4c(c3)OCO4)no2)n1
627 | CCC(C(=O)N1CCN(C)CC1)n1c2ccccc2c2cnn(C)c(=O)c21 (stereo not drawn)
795 | CCN1C(=O)CCc2cc(NC(=O)Cc3ccccc3Cl)ccc21
888 | Cc1ccc(S(=O)(=O)Nc2ccc(Nc3cc(-n4cccn4)ncn3)cc2)c(C)c1
925 | CCc1csc(-c2ccc(N3CCN(C(=O)Cc4ccc(F)cc4)CC3)nc2)n1
584 | OCC1CN(c2ncccn2)CC12CCN(Cc1ccc3cc[nH]c3c1)CC2 (stereo not drawn)
776 | CCn1c(C(=O)N2CCN(c3ccccn3)CC2)cc2c(-c3cccs3)nn(-c3ccccc3)c21
693 | O=C(c1cnccn1)N1CC(c2nc(-c3cccs3)no2)C1
824 | O=C(Cc1cc(-c2ccc(F)cc2)on1)NCCc1c[nH]c2ccccc12
562 | Cc1nc([C@@H]2CN(C(=O)c3cccs3)C[C@H]2C(N)=O)n[nH]1
729 | CC(=O)N1CCC(C(=O)NCc2c(-c3ccccc3)nc3sc(C)nn23)CC1
654 | CCS(=O)(=O)N1CCOc2ccc(NC(=O)COC)cc2C1
678 | O=C(c1sc2ccccc2c1Cl)N1CCN(c2ccccn2)CC1

Compound | RP-LC retention time [s]
COc1cccc(S(=O)(=O)N2CCC3(C2)C(=O)N(C)c2ccc(OC)cc23)c1 (stereo not drawn) | 904
